According to US5016655A, “Cigarette manufacturing process” (priority 1989, dated 1991):
Where two headings read alike, the source gives them in different places.

Assays:
human = details: cited from earlier work
mice = details: cited from earlier work
[1] = test system: radioactivity ([14C]NNN) in bronchial epithelium; assay: cyclohexanol vapor inhalation, [14C]NNN autoradiography (Examples 2 and 3); assay type: in vivo, C57BL/6J mouse; details: vapor 5 min
Description: The mouse was kept in the closed beaker for about five minutes as the bottom of the beaker was maintained at 50° C. in a water bath. […] Handbook of Chemistry and Physics (1979), at D-203 to D-217.
One hour later, the mouse was anesthetized lightly by ether and frozen by immersion in dry ice/hexane. […] Control experiments were conducted for comparison purposes and radioactivity was detected in the respiratory epithelium in the controls.
Example 2 was duplicated, except that the mouse was kept in the closed beaker for five minutes as the bottom of the beaker was maintained at 26° C. in a water bath. […] After injection as in Example 2, the mouse was processed in the same manner as in Example 2.

[2] = transfer of cyclohexanol to cigarette smoke, gas chromatography (Example 7)
Description: This work was performed to determine the amount of cyclohexanol transferred to smoke from cigarettes loaded with the chemical. Duplicate runs were carried out. In each run, smoke from twenty cigarettes, twelve puffs/cigarette, was collected. Cyclohexanol was analyzed in both the particulate (filter extract) and non-particulate phases of cigarette smoke by gas chromatography. A standard curve was made and analyzed simultaneously with the samples.
The total volume of smoke from 20 cigarettes=12×33.3×20=7992 ml [formula]
These calculations are based on the following information:
Using conventional manufacturing practices, 1,000 pounds of dressed rag tobacco yields 510,000 finished cigarettes. These ratios and yields are to be strictly monitored. The ratio of top dressing to rag tobacco is based on the published TLV's for the active ingredient of this dressing--cyclohexanol.

[3] = test system: smoker exposure versus effect level in animals; assay: daily body burden and exposure versus effect level
[4] = test system: localization of nitrosamines (NNN, NNK) in tissues; assay: nitrosamine delocalization / blocking, general statements; details: in vivo
[5] = transfer of cyclohexanol into smoke, standard smoking machine (Example 6)
Description: Cyclohexanol appears to meet these criteria.
Cigarettes were hand-laced with cyclohexanol, that is by evenly injecting the alcohol into the rod of a manufactured cigarette using a machine-controlled syringe. […] Sixty cigarettes were smoked on a standard smoking machine using Cambridge filter pads to collect the particulate phase, where most of the material is carried. A transfer efficiency of ten percent was established with this test cigarette. […]. The load was 620 micrograms per cigarette, and the transfer efficiency was ten percent. […].

rabbits = details: TLV documentation (1943); cited from earlier work
[6] = calculated air concentrations of cyclohexanol from cigarette smoke; details: nine puffs at 35 ml, 315 ml
Description: Therefore, 0.050 would be in 315 ml, which would be expected from nine puffs at 35 ml per puff. […] However, this exposure in contrast to the eight-hour work day assumption of the TLV is only during the actual puffing time for the smoker.

[7] = Table V; cited from earlier work
tumor formation = details: nasal cavity, salivary duct, esophagus, bronchial epithelium, liver; cited from earlier work
F-344 rat esophagus = F-344 rat esophagus vs other tissues; cited from earlier work

## OC1CCCCC1 [Cyclohexanol]
human; Example 7 summary
  TLV: 200
human; Table of smokestream concentrations
  TLV: 200.0 µg/L
human; Table of smokestream concentrations, listed as cyclohexanol
  TLV: 200 µg/L
human; eight continuous hours
  OSHA safe air level: two hundred
human; eight hour work day and forty hour work week
  Toxicity: OSHA time weighted average limit: 200 mg/m^3
mice
  acute intravenous toxic dose: 270 mg/kg
[1]; 26° C., 0.001% in air
  radioactivity in bronchial epithelium: No radioactivity was detected
[1]; 50° C., 0.01% in air
  radioactivity in bronchial epithelium: No radioactivity was detected
[2]; Example 7 summary
  % of TLV: 59.5%
[2]; Fully Smoked Cigarette
  Percent of TLV: 59.5%
[2]; Instant ("Puff") Exposure
  Percent TLV: 4.9%
[3]; all cyclohexanol in smoke absorbed, 20 cigarettes
  body burden from a pack of cigarettes: 1.0 mg
[3]; one pack a day smoker
  daily burden: 0.014 mg/kg
  mouse iv toxic dose versus human exposure: 20,000 times
[3]; rats, pharmacological changes (enzyme or neurotoxicity)
  difference in exposure versus effect level in animals: ~20,000 fold
[4]
  effectiveness against NNN or NNK: effective against NNN
  efficacy in the laboratory: highly effective in the laboratory
[5]; 620 micrograms per cigarette
  smoked concentration as % of TLV: 99 % of cyclohexanol TLV
[5]; 8750 micrograms loaded per cigarette
  smoked concentration as % of TLV: 1389 % of TLV
rabbits
  slight degenerative changes, air level: about 600 mg per cubic meter
[6]
  instantaneous concentration to a smoker as % of TLV: about 75 % of the TLV value
[7]
  Boiling Point: 161 °C

## O=NN1CCCC1c1cccnc1 (stereo not drawn) [NNN, N'-Nitrosonoronicotine]
Tumor formation
  number of sites of tumor formation: five
F-344 rat esophagus
  hydroxylation at the a-carbon of NNN adjacent to the pyridine ring: preferentially catalyzes hydroxylation
